One block for each compound: values may come before it.
What was measured:
[1] = target: Tyrosine-protein kinase ABL1 (Homo sapiens, UniProt P00519); assay: Selectivity interaction (KinaseProfiler screening (Millipore)) EUB0000601a ABL1; details: at 3 µM
[2] = target: T1, Myosin light chain kinase (Homo sapiens) (UniProt Q32MK0); assay: Selectivity interaction (KinomeScan (DiscoverX)) EUB0001049a MYLK3; details: at 1 µM
T1 sequence (whole entry): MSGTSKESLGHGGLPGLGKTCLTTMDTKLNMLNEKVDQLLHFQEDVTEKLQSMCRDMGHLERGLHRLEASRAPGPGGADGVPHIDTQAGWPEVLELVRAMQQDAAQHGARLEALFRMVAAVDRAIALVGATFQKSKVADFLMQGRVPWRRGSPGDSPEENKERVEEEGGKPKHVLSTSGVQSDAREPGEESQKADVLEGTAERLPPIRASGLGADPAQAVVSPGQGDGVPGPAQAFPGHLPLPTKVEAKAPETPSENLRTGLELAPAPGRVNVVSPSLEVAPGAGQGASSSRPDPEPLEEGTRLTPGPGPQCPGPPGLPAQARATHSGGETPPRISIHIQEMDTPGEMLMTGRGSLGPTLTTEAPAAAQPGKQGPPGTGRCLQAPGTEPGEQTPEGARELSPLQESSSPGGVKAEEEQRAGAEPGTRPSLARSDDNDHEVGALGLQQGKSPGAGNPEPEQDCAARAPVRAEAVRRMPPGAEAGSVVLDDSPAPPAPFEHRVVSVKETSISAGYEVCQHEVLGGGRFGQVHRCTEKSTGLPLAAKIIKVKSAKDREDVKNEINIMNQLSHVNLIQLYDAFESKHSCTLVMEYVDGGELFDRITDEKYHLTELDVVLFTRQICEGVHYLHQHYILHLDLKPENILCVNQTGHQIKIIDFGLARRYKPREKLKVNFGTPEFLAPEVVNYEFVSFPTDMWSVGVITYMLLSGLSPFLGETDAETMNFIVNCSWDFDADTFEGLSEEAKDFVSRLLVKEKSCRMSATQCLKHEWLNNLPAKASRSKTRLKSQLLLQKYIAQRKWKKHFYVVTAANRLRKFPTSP

[3] = target: SWI/SNF-related matrix-associated actin-dependent regulator of chromatin subfamily A member 2 (Homo sapiens, UniProt P51531); assay: Selectivity interaction (Bromodomain panel (DSF asssay)) EUB0000270b SMARCA2
[4] = target: Vascular endothelial growth factor receptor 2 (Homo sapiens, UniProt P35968); assay: Selectivity interaction (Kinase panel (literature)) EUB0001199aCl KDR; details: at 1 µM
[5] = target: Ribosomal protein S6 kinase beta-1 (Homo sapiens, UniProt P23443); assay: Selectivity interaction (Kinase panel (Z-LYTE Assay)) EUB0001632a RPS6KB1; details: at 10 µM
[6] = target: Tyrosine-protein kinase Fer (Homo sapiens) (UniProt P16591); assay: Selectivity interaction (KinomeScan (DiscoverX)) EUB0000595a FER; details: at 10 µM
[7] = target: Serine/threonine-protein kinase PAK 3 (Homo sapiens) (UniProt O75914); assay: Selectivity interaction (KinomeScan (DiscoverX)) EUB0000595a PAK3; details: at 10 µM
[8] = target: T2, Activin receptor type-1B (Homo sapiens) (UniProt P36896); assay: Selectivity interaction (ProQinase) EUB0000171b ACVR1B
T2 sequence (whole entry): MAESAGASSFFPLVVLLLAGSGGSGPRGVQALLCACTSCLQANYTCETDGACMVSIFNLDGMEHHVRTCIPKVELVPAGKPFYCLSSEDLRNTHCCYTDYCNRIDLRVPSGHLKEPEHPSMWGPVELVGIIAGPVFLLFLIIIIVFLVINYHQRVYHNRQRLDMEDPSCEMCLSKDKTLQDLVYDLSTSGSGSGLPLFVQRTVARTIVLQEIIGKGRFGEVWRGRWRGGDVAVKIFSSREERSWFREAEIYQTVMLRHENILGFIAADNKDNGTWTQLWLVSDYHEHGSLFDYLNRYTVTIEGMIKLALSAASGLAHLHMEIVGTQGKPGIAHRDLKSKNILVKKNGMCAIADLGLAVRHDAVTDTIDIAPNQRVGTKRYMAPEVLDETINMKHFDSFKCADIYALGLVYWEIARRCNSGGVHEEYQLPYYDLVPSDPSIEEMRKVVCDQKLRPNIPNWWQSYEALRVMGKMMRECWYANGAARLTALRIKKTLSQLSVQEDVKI

[9] = target: Myosin light chain kinase, smooth muscle (Homo sapiens, UniProt Q15746); assay: Selectivity interaction (KinomeScan (DiscoverX)) EUB0000092b MYLK; details: at 10 µM
[10] = target: Macrophage-stimulating protein receptor (Homo sapiens, UniProt Q04912); assay: Selectivity interaction (KinomeScan (DiscoverX)) EUB0000045b MST1R
[11] = target: Dual specificity mitogen-activated protein kinase kinase 1 (Homo sapiens, UniProt Q02750); assay: Selectivity interaction (KinomeScan (DiscoverX)) EUB0000045b MAP2K1
[12] = target: RAC-gamma serine/threonine-protein kinase (Homo sapiens, UniProt Q9Y243); assay: Selectivity interaction (KinomeScan (DiscoverX)) EUB0000655a AKT3; details: at 10 µM
[13] = target: T3, Serine/threonine-protein kinase TBK1 (Homo sapiens) (UniProt Q9UHD2); assay: Selectivity interaction (KinomeScan (DiscoverX)) EUB0001619a TBK1; details: at 1 µM
T3 sequence (whole entry): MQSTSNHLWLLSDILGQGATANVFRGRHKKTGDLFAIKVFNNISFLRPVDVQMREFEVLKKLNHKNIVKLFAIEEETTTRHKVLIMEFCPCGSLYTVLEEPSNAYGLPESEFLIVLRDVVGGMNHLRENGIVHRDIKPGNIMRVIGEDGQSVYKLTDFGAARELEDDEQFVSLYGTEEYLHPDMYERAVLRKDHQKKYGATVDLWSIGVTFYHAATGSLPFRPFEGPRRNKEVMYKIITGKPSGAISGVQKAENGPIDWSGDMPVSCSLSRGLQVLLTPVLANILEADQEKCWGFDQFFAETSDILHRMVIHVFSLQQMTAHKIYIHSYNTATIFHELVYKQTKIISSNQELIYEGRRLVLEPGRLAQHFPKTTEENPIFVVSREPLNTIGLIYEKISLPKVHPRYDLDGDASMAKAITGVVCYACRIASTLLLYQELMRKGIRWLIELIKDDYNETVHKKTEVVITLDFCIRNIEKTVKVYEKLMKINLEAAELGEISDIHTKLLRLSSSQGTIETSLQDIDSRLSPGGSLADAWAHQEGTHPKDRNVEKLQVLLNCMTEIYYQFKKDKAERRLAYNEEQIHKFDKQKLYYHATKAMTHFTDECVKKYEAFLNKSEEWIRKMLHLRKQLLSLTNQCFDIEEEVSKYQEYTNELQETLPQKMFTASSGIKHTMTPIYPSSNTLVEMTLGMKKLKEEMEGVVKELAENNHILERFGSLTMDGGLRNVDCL

Dual specificity mitogen-activated protein kinase kinase 1, sequence (Q02750 whole entry): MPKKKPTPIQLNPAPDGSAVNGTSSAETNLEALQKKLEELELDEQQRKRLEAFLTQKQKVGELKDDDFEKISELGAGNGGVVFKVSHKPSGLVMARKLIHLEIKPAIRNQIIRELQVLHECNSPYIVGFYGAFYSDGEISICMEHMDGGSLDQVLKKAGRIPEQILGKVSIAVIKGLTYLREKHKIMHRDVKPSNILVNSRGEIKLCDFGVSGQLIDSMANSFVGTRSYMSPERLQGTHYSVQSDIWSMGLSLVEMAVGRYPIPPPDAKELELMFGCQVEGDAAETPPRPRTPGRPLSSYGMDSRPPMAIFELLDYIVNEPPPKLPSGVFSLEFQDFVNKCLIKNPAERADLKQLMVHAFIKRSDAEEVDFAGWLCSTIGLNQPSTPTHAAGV
Macrophage-stimulating protein receptor, sequence (Q04912 25-304 limits assumed): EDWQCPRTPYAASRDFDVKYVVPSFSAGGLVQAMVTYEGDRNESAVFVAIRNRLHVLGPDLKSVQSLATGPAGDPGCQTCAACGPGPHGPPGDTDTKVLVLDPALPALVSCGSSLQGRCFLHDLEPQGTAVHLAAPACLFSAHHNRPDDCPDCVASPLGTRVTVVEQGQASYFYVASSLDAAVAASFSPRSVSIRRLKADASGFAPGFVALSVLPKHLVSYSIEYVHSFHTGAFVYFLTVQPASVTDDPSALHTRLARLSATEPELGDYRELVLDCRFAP
Macrophage-stimulating protein receptor, sequence (Q04912 310-1400 limits assumed): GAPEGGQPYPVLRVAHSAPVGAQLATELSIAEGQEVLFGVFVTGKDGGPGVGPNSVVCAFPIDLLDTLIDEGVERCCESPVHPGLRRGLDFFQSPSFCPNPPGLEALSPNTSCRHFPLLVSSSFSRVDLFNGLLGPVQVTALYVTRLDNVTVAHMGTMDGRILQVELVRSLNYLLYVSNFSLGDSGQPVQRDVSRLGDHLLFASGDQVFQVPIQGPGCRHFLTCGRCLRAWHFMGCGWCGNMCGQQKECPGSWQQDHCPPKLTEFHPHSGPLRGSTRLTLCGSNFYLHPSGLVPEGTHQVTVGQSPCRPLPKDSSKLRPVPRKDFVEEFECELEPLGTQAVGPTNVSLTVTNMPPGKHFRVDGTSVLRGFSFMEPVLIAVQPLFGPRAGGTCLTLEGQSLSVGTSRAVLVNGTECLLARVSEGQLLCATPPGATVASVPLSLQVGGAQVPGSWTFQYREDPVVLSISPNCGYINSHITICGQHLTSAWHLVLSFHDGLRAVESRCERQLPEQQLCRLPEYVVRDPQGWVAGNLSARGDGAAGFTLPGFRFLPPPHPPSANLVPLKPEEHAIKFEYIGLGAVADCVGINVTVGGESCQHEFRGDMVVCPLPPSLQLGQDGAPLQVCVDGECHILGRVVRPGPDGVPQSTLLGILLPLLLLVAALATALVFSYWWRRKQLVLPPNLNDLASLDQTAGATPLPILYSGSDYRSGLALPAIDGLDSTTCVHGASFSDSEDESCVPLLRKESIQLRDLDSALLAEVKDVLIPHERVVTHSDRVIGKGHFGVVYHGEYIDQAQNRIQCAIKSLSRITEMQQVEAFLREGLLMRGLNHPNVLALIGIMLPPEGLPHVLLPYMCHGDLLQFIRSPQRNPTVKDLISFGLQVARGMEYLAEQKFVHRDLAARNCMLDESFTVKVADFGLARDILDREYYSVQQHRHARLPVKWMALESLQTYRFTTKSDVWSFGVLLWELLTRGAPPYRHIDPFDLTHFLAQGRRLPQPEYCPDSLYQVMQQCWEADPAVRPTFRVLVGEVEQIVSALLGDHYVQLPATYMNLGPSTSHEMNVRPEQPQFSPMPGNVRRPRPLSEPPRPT
RAC-gamma serine/threonine-protein kinase, sequence (Q9Y243 whole entry): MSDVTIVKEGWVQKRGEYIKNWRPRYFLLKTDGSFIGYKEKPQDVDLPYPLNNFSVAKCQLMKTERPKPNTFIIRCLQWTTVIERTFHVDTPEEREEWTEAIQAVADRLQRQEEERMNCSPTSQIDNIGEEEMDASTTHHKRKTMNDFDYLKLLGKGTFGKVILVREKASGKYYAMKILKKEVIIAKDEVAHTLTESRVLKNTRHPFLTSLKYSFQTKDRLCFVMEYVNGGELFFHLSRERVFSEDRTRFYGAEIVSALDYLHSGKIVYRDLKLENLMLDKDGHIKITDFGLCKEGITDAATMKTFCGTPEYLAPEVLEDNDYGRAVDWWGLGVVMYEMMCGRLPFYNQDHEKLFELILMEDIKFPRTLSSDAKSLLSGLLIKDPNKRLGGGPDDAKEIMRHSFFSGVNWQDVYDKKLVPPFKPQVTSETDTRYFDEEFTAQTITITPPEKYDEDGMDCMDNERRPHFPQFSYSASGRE
Vascular endothelial growth factor receptor 2, sequence (P35968 whole entry): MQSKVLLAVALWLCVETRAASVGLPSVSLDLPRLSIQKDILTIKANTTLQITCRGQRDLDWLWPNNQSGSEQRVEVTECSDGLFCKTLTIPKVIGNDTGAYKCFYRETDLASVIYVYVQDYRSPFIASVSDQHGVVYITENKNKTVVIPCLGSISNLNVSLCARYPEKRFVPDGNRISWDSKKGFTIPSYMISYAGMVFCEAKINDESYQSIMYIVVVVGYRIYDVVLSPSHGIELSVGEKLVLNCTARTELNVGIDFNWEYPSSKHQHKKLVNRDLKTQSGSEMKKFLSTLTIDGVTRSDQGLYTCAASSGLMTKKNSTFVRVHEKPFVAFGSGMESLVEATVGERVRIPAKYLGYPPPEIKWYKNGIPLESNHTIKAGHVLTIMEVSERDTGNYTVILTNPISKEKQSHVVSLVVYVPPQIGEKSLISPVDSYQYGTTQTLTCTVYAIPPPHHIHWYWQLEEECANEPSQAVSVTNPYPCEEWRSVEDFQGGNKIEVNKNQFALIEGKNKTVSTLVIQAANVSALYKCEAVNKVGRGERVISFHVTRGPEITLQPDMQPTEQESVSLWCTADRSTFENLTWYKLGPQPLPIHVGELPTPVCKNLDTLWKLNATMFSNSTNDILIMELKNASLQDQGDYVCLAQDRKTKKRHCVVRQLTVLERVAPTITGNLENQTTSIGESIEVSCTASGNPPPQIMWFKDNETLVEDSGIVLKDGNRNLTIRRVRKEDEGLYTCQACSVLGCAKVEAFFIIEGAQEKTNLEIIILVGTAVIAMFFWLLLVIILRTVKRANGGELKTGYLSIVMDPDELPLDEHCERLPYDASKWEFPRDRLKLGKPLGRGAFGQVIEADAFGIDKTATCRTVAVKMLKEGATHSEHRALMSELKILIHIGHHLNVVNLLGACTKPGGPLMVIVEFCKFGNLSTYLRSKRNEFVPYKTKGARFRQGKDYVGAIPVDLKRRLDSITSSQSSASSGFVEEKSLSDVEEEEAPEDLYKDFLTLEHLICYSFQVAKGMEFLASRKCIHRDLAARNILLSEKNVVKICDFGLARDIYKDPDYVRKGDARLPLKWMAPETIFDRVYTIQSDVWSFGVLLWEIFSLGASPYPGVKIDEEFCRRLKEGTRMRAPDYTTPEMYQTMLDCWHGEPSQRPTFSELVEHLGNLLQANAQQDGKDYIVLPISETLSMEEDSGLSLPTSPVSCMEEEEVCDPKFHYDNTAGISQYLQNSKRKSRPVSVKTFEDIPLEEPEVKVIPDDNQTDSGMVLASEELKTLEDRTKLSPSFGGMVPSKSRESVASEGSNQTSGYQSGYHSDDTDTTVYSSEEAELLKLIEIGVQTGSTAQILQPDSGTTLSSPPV
Ribosomal protein S6 kinase beta-1, sequence (P23443 whole entry, looked up): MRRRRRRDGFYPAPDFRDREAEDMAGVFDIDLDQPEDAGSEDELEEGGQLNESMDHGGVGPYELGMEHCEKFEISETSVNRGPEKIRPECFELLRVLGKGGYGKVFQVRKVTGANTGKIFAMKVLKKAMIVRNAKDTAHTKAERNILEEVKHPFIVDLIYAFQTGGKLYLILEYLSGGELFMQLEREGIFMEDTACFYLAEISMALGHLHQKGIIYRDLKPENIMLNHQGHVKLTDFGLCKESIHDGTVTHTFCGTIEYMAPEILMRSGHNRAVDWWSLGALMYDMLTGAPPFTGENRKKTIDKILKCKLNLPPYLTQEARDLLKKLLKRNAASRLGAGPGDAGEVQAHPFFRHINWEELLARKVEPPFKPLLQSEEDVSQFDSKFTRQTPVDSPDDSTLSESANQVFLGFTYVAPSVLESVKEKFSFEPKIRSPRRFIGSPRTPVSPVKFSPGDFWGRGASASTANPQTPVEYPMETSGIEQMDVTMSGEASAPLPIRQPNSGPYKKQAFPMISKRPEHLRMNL
Serine/threonine-protein kinase PAK 3 (Homo sapiens), sequence (O75914 whole entry, looked up): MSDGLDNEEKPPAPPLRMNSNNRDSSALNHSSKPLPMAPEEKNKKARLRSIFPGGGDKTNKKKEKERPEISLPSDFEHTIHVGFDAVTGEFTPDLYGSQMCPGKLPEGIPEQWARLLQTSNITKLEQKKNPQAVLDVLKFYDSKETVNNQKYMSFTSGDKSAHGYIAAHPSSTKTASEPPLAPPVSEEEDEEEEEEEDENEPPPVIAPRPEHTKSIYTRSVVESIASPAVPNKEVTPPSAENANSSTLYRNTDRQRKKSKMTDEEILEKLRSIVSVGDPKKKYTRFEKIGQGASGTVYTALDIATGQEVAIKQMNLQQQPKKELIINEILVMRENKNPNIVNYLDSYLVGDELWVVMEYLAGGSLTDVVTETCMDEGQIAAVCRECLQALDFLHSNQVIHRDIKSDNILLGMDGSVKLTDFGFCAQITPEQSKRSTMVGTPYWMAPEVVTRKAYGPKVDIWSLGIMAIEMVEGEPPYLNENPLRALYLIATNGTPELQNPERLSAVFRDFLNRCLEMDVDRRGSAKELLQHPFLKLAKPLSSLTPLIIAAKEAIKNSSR

% of inhibition [1]: 57%
SMILES: CCc1cc(Nc2nccc(-c3c(-c4ccc(OC)c(C(=O)Nc5c(F)cccc5F)c4)nc4ccccn34)n2)c(OC)cc1N1CCC(N2CCN(S(C)(=O)=O)CC2)CC1

SMILES: COc1cc(Nc2nc(C)cc(-c3cnn4nc(OC)ccc34)n2)cc(C(F)(F)F)c1
% of control [2]: 82%

dTM [3]: -0.5 K
SMILES: Cc1cc(CN)cc(C)c1-c1ncn(C)c1-c1cncn1C

% of inhibition [4]: 8%
SMILES: CN1Cc2nccc(-c3cn(C)nc3-c3ccc(F)cc3)c2C1=O

% of control [5]: 2.46%
SMILES: Cn1cc(-n2cnc3c(NCc4nc5cc(Cl)c(Cl)cc5[nH]4)nc(N4CCOCC4)nc32)cn1

SMILES: COCC(=O)NC/C=C/c1ccc2ncnc(Nc3ccc(Oc4ccc(C)nc4)c(C)c3)c2c1 [CP-724714]
% of control [6]: 100%
% of control [7]: 70%

% of control ([8]; at 1 µM): 94%
% of control ([8]; at 5 µM): 94%
SMILES: C=CC(=O)Nc1cccc(C(=O)Nc2ccc(Nc3cc(-c4[nH]c(SC)nc4C)ccn3)cc2)c1

SMILES: CCC(=O)N1CCN(c2ccc(-n3c(=O)ccc4cnc5ccc(-c6cnc7ccccc7c6)cc5c43)cc2C(F)(F)F)CC1
% of control [9]: 94%

SMILES: C=CC(=O)Nc1cc(-n2c(=O)ccc3cnc4ccc(-c5ccc(NS(C)(=O)=O)cc5)cc4c32)ccc1C
% of control ([10]; at 1 µM): 100%
% of control ([10]; at 10 µM): 100%
% of control ([11]; at 1 µM): 100%
% of control ([11]; at 10 µM): 65%

SMILES: CN(C)CCOc1ccc(-c2nc(-c3ccncc3)c(-c3ccc4c(c3)CC/C4=N\O)[nH]2)cc1
% of control [12]: 97%

SMILES: N#Cc1cccc(-c2c[nH]c3ncnc(N4CCOCC4)c23)c1
% of control [13]: 100%
